Molecules are shown by their SMILES. “Also recorded” adds a separate entry of the source. Where two headings read alike, the source gives them in different places.

The target in one data set is T1, human DAT (Homo sapiens, UniProt Q01959).
T1 construct: expressed in transfected cells; cells as described by Chen et al., J. Neurochem; 2004, 89:853-864
Put plainly: Inhibition of [3H]DA uptake in cells expressing cloned human DAT. The class given is cell-based.

The next data set addresses T2, human SERT (Homo sapiens, UniProt P31645).
T2 construct: expressed in transfected cells; cells as described by Eshleman et al., J. Pharmacol. Exp. Ther. 1995, 274:276-283
Put plainly: cell-based.

In a further data set the target is T3, human NET (Homo sapiens, UniProt P23975).
T3 construct: expressed in transfected cells; cells as described by Reith et al., J. Neurosci
Put plainly: cell-based.

The subject of the next data set is Male C57BL/6 mice. Put plainly: Locomotor ambulatory activity. The class given is in vivo. An excerpt: Many, but not all, psychostimulants with potent action at DAT, also stimulate locomotor ambulatory activity in rodents. […] Male C57BL/6 mice were contained in a box equipped with infrared beams, the consecutive interruption of which by horizontal activity by the mouse provided a measure for ambulation.

The conditions of data set [1]: 25 mg/kg i.p., reported levels, cited from earlier work.
The next data set relates to adult male C57BL/6 mice. Put plainly: Forced swim test model of antidepressant-like activity. The class given is in vivo. The note with it: vs saline. On the procedure: Data are mean ±SEM (vertical bar). ***P<0.001, n=7-9 (One-way ANOVA and Bonferroni post-hoc tests).
The Forced Swim Test (FST) is a rodent model often used to evaluate the anti-depressive effect of therapeutics. Rats swim under conditions in which escape is not possible. On the first day, rats are forced to swim for 15 minutes. The animals are observed to initially struggle to escape from the water. They then adopt a posture of immobility making only movements necessary to keep their heads above water. The rats are retested 24 hours later. The immobility increases. Treatment with standard antidepressant drugs within the 24 hours between the first exposure to forced swimming and retesting can block facilitated immobility, an effect which is associated with antidepressant efficacy in humans. See Porsolt et al, (1977) Nature 266:730-732; Detke et al. (1995) Psychopharmacology 121:66-72.
Antidepressant-like activity of compound 11 was tested in the forced swim test model as previously described (Porsolt et al., supra; Castagne et al. (2011) Curr Protoc Neurosci 55: Unit 8.10A). Briefly, adult male C57BL/6 mice (N=7-9/group) were placed into individual glass cylinders containing clean 25° C. (±1° C.) water, 15 cm deep for 15 minutes. Mice were removed, dried and returned to their home cages. A second 6-minute swim test was given 24 hours after the first. Saline (3 ml/kg, i.p.), Compound 11 (30 mg/kg, i.p.) or desipramine (10 mg/kg, i.p.; a well-known antidepressant, used as a positive control) were administered […], 5 hours, and 1 hour before the second swim test (i.e., 30 minutes, 19 hours and 23 hours after the first swim). Test sessions were video recorded. Behavior during the 6-minute swim test was scored from the videotapes. The cumulative amount of time that the mouse was immobile in the water during the last 4 minutes of the test was measured, as was the latency for the mouse to show the first bout of immobility behavior. Immobility was defined as the mouse performing no movements except those necessary to keep the head above the water (e.g., no swimming or climbing behaviors). […] Immobility scores were analyzed by a one-way ANOVA, followed by the Bonferroni post-hoc analysis.

Data set [2] is described as follows: Brain uptake: brain and plasma levels by mass spectrometry. The note with it: for concentration at 5 min / concentration at 30 min: male, CD-1, mouse, intraperitoneal, 30 mg/kg. On the procedure: Data shown are mean±SEM (vertical bar).
Brain and plasma levels of 11 were determined by mass spectrometry.

[3] abbreviates: tested at 10 mg/kg and 30 mg/kg.

T1 sequence (Q01959 whole entry): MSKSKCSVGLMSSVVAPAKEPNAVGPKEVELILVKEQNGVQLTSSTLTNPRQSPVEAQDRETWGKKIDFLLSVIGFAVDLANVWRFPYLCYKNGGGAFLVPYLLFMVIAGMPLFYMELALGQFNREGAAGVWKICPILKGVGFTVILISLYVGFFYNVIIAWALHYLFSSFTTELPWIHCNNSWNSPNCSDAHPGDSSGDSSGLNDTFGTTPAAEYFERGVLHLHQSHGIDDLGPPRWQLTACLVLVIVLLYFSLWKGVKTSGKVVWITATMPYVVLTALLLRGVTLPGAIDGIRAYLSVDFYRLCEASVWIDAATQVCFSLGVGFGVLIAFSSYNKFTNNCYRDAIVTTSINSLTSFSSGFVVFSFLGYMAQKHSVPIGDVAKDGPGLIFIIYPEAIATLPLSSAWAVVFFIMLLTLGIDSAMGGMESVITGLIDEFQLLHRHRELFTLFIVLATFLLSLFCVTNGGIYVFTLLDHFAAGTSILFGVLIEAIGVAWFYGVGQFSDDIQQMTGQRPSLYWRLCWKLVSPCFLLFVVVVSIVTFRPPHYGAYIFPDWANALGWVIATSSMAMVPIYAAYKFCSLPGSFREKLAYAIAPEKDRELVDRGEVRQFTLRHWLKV
T3 sequence (P23975 whole entry): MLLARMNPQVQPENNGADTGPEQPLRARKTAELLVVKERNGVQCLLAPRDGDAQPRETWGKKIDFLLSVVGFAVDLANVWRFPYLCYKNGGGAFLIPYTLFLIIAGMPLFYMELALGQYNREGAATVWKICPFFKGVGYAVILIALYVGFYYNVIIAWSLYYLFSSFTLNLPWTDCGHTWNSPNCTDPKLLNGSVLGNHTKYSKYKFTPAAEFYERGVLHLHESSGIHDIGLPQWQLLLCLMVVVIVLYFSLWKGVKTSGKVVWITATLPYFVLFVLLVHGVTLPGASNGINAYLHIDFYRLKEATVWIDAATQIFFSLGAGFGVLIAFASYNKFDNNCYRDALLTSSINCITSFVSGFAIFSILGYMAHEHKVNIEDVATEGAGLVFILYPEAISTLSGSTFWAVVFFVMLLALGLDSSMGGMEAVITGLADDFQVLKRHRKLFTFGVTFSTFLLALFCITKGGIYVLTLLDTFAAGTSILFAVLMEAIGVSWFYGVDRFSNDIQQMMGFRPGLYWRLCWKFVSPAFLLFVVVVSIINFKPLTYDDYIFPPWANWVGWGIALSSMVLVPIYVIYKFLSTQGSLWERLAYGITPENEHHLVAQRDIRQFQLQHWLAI
T2 sequence (P31645 whole entry): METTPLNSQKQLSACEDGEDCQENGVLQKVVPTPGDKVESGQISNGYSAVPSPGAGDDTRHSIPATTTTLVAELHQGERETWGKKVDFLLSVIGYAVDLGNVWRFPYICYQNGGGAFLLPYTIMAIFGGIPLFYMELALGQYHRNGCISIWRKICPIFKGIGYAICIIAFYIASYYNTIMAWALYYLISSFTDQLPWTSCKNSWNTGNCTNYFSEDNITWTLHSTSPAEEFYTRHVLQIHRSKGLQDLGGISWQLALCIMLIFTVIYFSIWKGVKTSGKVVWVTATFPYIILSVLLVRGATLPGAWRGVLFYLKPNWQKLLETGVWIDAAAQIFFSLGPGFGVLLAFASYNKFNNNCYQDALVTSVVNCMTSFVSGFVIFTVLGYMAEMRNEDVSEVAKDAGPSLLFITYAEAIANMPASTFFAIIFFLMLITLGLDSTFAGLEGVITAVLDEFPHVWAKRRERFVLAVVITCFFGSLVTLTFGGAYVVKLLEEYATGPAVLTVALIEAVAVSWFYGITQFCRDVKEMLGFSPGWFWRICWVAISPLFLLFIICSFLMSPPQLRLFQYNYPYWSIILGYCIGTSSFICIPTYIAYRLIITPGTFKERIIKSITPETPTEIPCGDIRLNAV

`CC[C@@]12CC[C@@H](C[C@H](OC(=O)c3ccccc3)[C@@H]1C(=O)OC)N2C` [Compound 11b, Methyl (1R,2R,3S,5S)-(−)-1-ethyl-3-(benzoyloxy)-8-methyl-8-azabicyclo[3.2.1]octane-2-carboxylate]: the results for the Ki at human DAT, at human SERT and on human NET were 95.1 ± 17 nM, 1110 nM and 598 ± 179 nM, respectively. In addition, the Locomotor stimulation result with Male C57BL/6 mice (setting [3]) is given as “locomotor activities below those observed with 10 mg/kg of cocaine”.

On to `CCCCC[C@@]12CC[C@@H](C[C@H](OC(=O)c3ccccc3)[C@@H]1C(=O)OC)N2C` [Compound 11c, Methyl (1R,2R,3S,5S)-(+)-1-pentyl-3-(benzoyloxy)-8-methyl-8-azabicyclo[3.2.1]octane-2-carboxylate], for which the results for the Ki on human DAT, on human SERT and on human NET were 1270 nM, 1890 nM and 1600 ± 21 nM, respectively. Further, the Locomotor stimulation entry in the data set on Male C57BL/6 mice (setting [3]) is reported as “locomotor activities below those observed with 10 mg/kg of cocaine”.

`COC(=O)[C@H]1[C@@H](OC(=O)c2ccccc2)C[C@@H]2CC[C@H]1N2C` [cocaine, methyl-(1R,2R,3S,5S)-3-(benzoyloxy)-8-methyl-8-azabicyclo[3.2.1]octane-2-carboxylate]: the Locomotor stimulation entry is reported as “slight elevation above saline” in the data set on Male C57BL/6 mice (10 mg/kg intraperitoneally) and “pronounced increase” with Male C57BL/6 mice (30 mg/kg intraperitoneally). The Brain level was 6700 ± 1200 ng/mL in data set [1] (5 minutes) and 2300 ± 300 ng/mL in data set [1] (30 minutes). In addition, the values for the Plasma level in data set [1] (5 minutes) and in data set [1] (30 minutes) were 1100 ± 100 ng/mL and 400 ± 50 ng/mL, respectively.

Take `COC(=O)C1[C@@H](OC(=O)c2ccccc2)CC2CCC1(C)N2C` (stereo partly drawn) [Compound 11, Methyl (1R,2R,3S,5S)-(−)-3-(benzoyloxy)-1,8-dimethyl-8-azabicyclo[3.2.I]octane-2-carboxylate]: the Ki (commonly the equilibrium dissociation constant of an inhibitor or competing ligand from its target) on human DAT amounted to 168 ± 23 nM; on human SERT it was 435 ± 77 nM; at human NET it was 488 ± 101 nM. Further, the Locomotor stimulation entry with Male C57BL/6 mice (30 mg/kg intraperitoneally) is given as “did not stimulate locomotion to levels above those seen with 10 mg/kg of cocaine”. For the same compound, the Immobility time result with adult male C57BL/6 mice (30 mg/kg i.p., last 4 minutes of the 6-minute swim test) is “decreased immobility time; also recorded: as effective as the antidepressant desipramine in reducing immobility time”. Moreover, the “Latency to first episode of immobility” value in the data set on adult male C57BL/6 mice (30 mg/kg i.p.) is reported as “increased latency to first episode of immobility; also recorded: significantly increased over saline”. Also, the results for the concentration at 5 min in data set [2] (brain) and in data set [2] (plasma) were 8600 ± 700 ng/mL and 3300 ± 200 ng/mL, respectively. Besides, the values for the concentration at 30 min in data set [2] (brain) and in data set [2] (plasma) were 3800 ± 200 ng/mL and 1700 ± 300 ng/mL, respectively. For the same compound, the Brain penetration result in data set [2] (pharmacokinetic assay, compared with cocaine) is “occupies the brain as readily as cocaine”.

As to `COC(=O)[C@H]1[C@@H](OC(=O)c2ccccc2)C[C@@H]2CC[C@@]1(c1ccccc1)N2C` [Compound 11d, Methyl (1R,2R,3S,5S)-(−)-3-(benzoyloxy)-1-phenyl-8-methyl-8-azabicyclo[3.2.1]octane-2-carboxylate], the results for the Ki at human DAT, on human SERT and on human NET were 31.9 ± 5.7 nM, 974 ± 308 nM and 1980 nM, respectively. Besides, the “Potency at blocking DAT relative to cocaine” value on human DAT (versus cocaine) is recorded as “ten-fold more potent than cocaine”. Moreover, in the data set on Male C57BL/6 mice (setting [3]), the Locomotor stimulation result is recorded as “locomotor activities below those observed with 10 mg/kg of cocaine”.

For the compound `CCC[C@@]12CC[C@@H](C[C@H](OC(=O)c3ccccc3)[C@@H]1C(=O)OC)N2C` [Compound 11a, Methyl (1R,2R,3S,5S)-(−)-1-propyl-3-(benzoyloxy)-8-methyl-8-azabicyclo[3.2.1]octane-2-carboxylate], the Ki was 871 ± 205 nM at human DAT, 2990 nM at human SERT and 796 ± 195 nM on human NET. Also, in the data set with Male C57BL/6 mice (setting [3]), the Locomotor stimulation entry was “locomotor activities below those observed with 10 mg/kg of cocaine”.

Regarding `CNCCCN1c2ccccc2CCc2ccccc21` [desipramine, reference compound], in the data set with adult male C57BL/6 mice (10 mg/kg i.p.), the Immobility time entry is recorded as “decreased immobility time” and the “Latency to first episode of immobility” value is on record as “increased latency to first episode of immobility”.

Values taken from US8557842B2 (priority 2010, dated 2013).
